The subject of the assay is sapstain. The settings on record: fresh cut hackberry lumber dipped in aqueous solutions (1,3,5,7 and 10% boric acid; DOT at the same level of boric oxide); stacked for air drying; examined after six months of seasoning and planing. Here is the method: Aqueous solutions containing 1,3,5,7, and 10% boric acid according to my preferred embodiment were prepared and used to treat fresh cut hackberry lumber by dipping. Aqueous disodium octaborate tetrahydrate solutions containing the same level of boric oxide were prepared and used in the same manner. This treated lumber, and untreated controls, was stacked in accordance with standard sawmill air drying practice. After six months of seasoning the lumber was planed, and examined for sapstain control.

Structures are written as SMILES.

As for `OB(O)O` [boric acid], the sapstain control result was “superior sapstain control compared to the DOT concentrations”.

Regarding `O.O.O.O.O=BOB1OB(OB=O)OB2OB([O-])OB([O-])OB(O1)O2.[Na+].[Na+]` [DOT, disodium octaborate tetrahydrate], the sapstain control entry is reported as “superior to the untreated controls”.

The record behind these values is patent US6685968B1, “Boric acid sapstain control method” (priority 2003, dated 2004).
